Results taken from patent US20250268873A1, “COMBINATION OF DUAL ATM AND DNA-PK INHIBITORS AND IMMUNOTHERAPEUTIC AGENTS FOR USE IN CANCER THERAPY” (XRAD THERAPEUTICS, INC., priority 2021, published 2025).

Columns and labels:
[1] = tested on: A549 cells; assay: Clonogenic Survival Assay in A549 cells; assay type: cell-based, human; conditions: for Fold 2 Gy / Fold 4 Gy: vs DMSO; for % survival @ 0 Gy w/out IR: no IR
Experimental: (§1) Human cancer cell lines, including MCF-7 human breast carcinoma cell line and A549 human lung carcinoma cell line, and HCT116 p53 wild-type and HCT116 p53−/− cell lines were obtained from ATCC. MCF7 and HCT116 cells were cultured in Dulbecco's modified Eagle's medium (DMEM (Gibco #11995-065). MDA-MB-231 human triple negative breast cancer cell line and FADU, human head and neck squamous cell carcinoma line, were obtained from Charles River Laboratories (Morrisville, NC). MDA-MB-231 and A549 cells were cultured in RPMI 1640 medium (Gibco, 11875-093). FADU cells were cultured in Minimum Essential Medium α (MEM α) (Gibco, 12571-063) supplemented with 1 mM Sodium Pyruvate (Gibco, 11360-070), 1×MEM Non-Essential Amino Acids (Gibco, 11140-050). All cell lines were supplemented with 10% fetal bovine serum (FBS) (Corning, 35-010-CV) and 1× Antibiotic-Antimycotic (Gibco #15240-062) and were grown at 37° C. in 5% CO2. All cell lines were authenticated by short tandem repeat profiling and tested negative for mycoplasma.
(§2) This assay was performed with Compound 569 as an exemplary Formula (I) compound. Cells were plated in 6-well plates at different densities: 250 cells for no IR control, 5000 cells for 2 Gy of IR and 10000 cells for 4 Gy of IR and cultured overnight. The next day, MCF7 cells were preincubated with compound 569 at 100, 250, 500, or 1000 nM or DMSO for 30 min before being exposed to increasing doses of IR (0, 2, or 4 Gy). The A549 cells were incubated with Compound 569 at 500 or 1000 nM or with DMSO for 30 min before being exposed to increasing doses of IR (0, 2, or 4 Gy). After IR, cells were continuously incubated with DMSO or compound 569 for 5 h before the culture medium was removed and cells were washed with PBS. Cells were cultured in complete medium in the absence of inhibitor for 9 days. Then cells were stained (PBS, […], 0.1% crystal violet) rinsed with water and dried.

[2] = tested on: MCF7 cells; assay: Clonogenic Survival Assay in MCF7 cells; assay type: cell-based, human; conditions: for Fold 2 Gy / Fold 4 Gy: vs DMSO; for % survival @ 0 Gy w/out IR: no IR
Experimental: as §1, §2

Compound: CC(C)NCCOc1ncc(-c2cc3c4c(cnc3cc2F)N(C)C(=O)C42CCC2)cc1NS(C)(=O)=O [Compound 569, N-(5-(7′-Fluoro-3′-methyl-2′-oxo-2′,3′-dihydrospiro[cyclobutane-1,1′-pyrrolo[2,3-c]quinolin]-8′-yl)-2-(2-(isopropylamino)ethoxy)pyridin-3-yl)methanesulfonamide]
- cellular toxicity in the absence of IR ([1]; 5-h exposure): without evidence of cellular toxicity
- radiosensitization ([1]; 5-h exposure, 500 and 1000 nM, 0, 2, 4 Gy): significant degree of radiosensitization
- Clonogenic survival ratio 0 Gy ([1]; 569 500 nM): 1.000
- Clonogenic survival ratio 2 Gy ([1]; 569 500 nM): 0.0780
- Fold 2 Gy ([1]; 569 500 nM): 9.3
- Clonogenic survival ratio 4 Gy ([1]; 569 500 nM): 0.0044
- Fold 4 Gy ([1]; 569 500 nM): 64
- % survival @ 0 Gy w/out IR ([1]; 569 500 nM): 110%
- Clonogenic survival ratio 0 Gy ([1]; 569 1000 nM): 1.000
- Clonogenic survival ratio 2 Gy ([1]; 569 1000 nM): 0.0520
- Fold 2 Gy ([1]; 569 1000 nM): 14
- Clonogenic survival ratio 4 Gy ([1]; 569 1000 nM): 0.0015
- Fold 4 Gy ([1]; 569 1000 nM): 188
- % survival @ 0 Gy w/out IR ([1]; 569 1000 nM): 103%
- cellular toxicity in the absence of IR ([2]; 5-h exposure): without evidence of cellular toxicity
- radiosensitization ([2]; 5-h exposure, 100-1000 nM, 0, 2, 4 Gy): significant degree of radiosensitization
- Clonogenic survival ratio 0 Gy ([2]; 569 100 nM): 1.000
- Clonogenic survival ratio 2 Gy ([2]; 569 100 nM): 0.0882
- Fold 2 Gy ([2]; 569 100 nM): 7.5
- Clonogenic survival ratio 4 Gy ([2]; 569 100 nM): 0.0146
- Fold 4 Gy ([2]; 569 100 nM): 21.8
- % survival @ 0 Gy w/out IR ([2]; 569 100 nM): 92%
- Clonogenic survival ratio 0 Gy ([2]; 569 250 nM): 1.000
- Clonogenic survival ratio 2 Gy ([2]; 569 250 nM): 0.0610
- Fold 2 Gy ([2]; 569 250 nM): 10.8
- Clonogenic survival ratio 4 Gy ([2]; 569 250 nM): 0.00588
- Fold 4 Gy ([2]; 569 250 nM): 54.0
- % survival @ 0 Gy w/out IR ([2]; 569 250 nM): 97%
- Clonogenic survival ratio 0 Gy ([2]; 569 500 nM): 1.000
- Clonogenic survival ratio 2 Gy ([2]; 569 500 nM): 0.0451
- Fold 2 Gy ([2]; 569 500 nM): 14.7
- Clonogenic survival ratio 4 Gy ([2]; 569 500 nM): 0.00347
- Fold 4 Gy ([2]; 569 500 nM): 91.5
- % survival @ 0 Gy w/out IR ([2]; 569 500 nM): 105%
- Clonogenic survival ratio 0 Gy ([2]; 569 1000 nM): 1.000
- Clonogenic survival ratio 2 Gy ([2]; 569 1000 nM): 0.0301
- Fold 2 Gy ([2]; 569 1000 nM): 22.0
- Clonogenic survival ratio 4 Gy ([2]; 569 1000 nM): 0.0016
- Fold 4 Gy ([2]; 569 1000 nM): 198
- % survival @ 0 Gy w/out IR ([2]; 569 1000 nM): 100%
